Measured values from patent US20250109120A1, “INDOLINE DERIVATIVES FOR TREATMENT AND/OR PREVENTION OF TUMOR OR CELL PROLIFERATIVE AND FIBROSIS DISEASES” (NATIONAL TAIWAN UNIVERSITY, priority 2023, published 2025).

Columns and labels:
DU145 cells = assay: LiCl-induced β-catenin signaling, western blot; assay type: cell-based, human; details: LiCl 20 mM; senexin A 10 μM
Method: Inhibitory phosphorylation of GSK3β was evaluated through western blotting. […] Whole-cell lysates were subjected to western blotting with the indicated antibodies. FIGS. 11J-11K show the comparison of basal activities of the Akt/GSK3β axis between PC-3 and DU145 cells. […] The results are shown as the mean±SEM from at least three independent experiments (*p<0.05, **p<0.01, ***p<0.001 vs. control group; #p<0.05, ##p<0.01, and ###p<0.001 vs. relevant control).
The cells were incubated in lysis buffer for 10 min at 4° C., scraped off, incubated on ice for an additional 10 min and then centrifuged at 17,000 g for 30 min at 4° C. Protein samples were electrophoresed on SDS-PAGE gels, transferred to PVDF membranes and blocked with 5% fat-free milk in PBS for 30 min at room temperature. Immunoblotting was performed overnight with primary antibodies in PBS at 4° C., followed by incubation with HRP-conjugated secondary antibodies for 1 h at room temperature. Bound antibodies will be measured using an ECL reagent and exposed to a photographic film. In the immunoprecipitation assay, cell lysates were immunoprecipitated with 1 μg of antibody and A/G agarose beads overnight at 4° C. After washing the precipitated beads three times with 1 mL ice-cold cell lysis buffer, bound immune complexes were separated by 10% SDS-PAGE and analyzed with immunoblotting.

CDK8 = CDK8 (Homo sapiens (Human), UniProt P49336); details: commercial CDK8 inhibitor; cited from earlier work
Sequence of CDK8 (P49336 whole entry, looked up, species assumed): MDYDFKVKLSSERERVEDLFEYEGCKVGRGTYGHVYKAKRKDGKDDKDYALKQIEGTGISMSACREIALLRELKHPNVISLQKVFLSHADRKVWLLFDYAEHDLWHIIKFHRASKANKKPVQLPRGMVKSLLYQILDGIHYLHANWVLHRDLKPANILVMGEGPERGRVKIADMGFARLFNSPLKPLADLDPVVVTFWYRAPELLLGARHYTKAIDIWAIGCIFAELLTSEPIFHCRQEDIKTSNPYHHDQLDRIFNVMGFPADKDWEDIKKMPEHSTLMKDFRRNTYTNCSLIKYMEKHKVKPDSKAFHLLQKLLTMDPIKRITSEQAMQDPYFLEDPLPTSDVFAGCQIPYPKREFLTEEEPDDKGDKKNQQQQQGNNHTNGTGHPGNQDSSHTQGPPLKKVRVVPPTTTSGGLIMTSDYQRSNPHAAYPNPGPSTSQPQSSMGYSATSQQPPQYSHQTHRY
Sequence of CDK8 (P24863 whole entry partner, looked up, species assumed): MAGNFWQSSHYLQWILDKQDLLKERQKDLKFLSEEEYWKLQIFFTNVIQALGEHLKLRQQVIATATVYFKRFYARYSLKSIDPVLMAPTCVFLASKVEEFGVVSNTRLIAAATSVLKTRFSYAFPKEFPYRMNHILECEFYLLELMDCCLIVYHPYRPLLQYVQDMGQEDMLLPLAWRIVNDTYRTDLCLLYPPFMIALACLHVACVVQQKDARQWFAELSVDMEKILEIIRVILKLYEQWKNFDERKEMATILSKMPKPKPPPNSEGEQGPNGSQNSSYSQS

A549 cells [1] = assay: Nuclear p-Smad3 T179 and RNA polymerase II pS2/S5 after TGF-β1, fractionation and western blot; assay type: cell-based, human; details: compound k 5 μM, senexin A 5 μM, pirfenidone 1 mM; TGF-β1 10 ng/ml 3 h
Method: FIGS. 8A-8B show the inhibitory effects of cellular distributions of TGF-β1-induced p-Smad3 T179, RNA polymerase II pS2/S5, and Smad3 after treatment with compound k. Human alveolar epithelial A549 cells were incubated with compound k (5 μM), senexin A (5 μM), or pirfenidone (1 mM) for 1 h, followed by stimulation with TGF-β1 (10 ng/ml) for 3 h. Protein expressions in the cytoplasmic and nuclear fractions were subjected to a Western blot analysis using the indicated antibodies. α-Tubulin and histone H3 served as loading controls for the cytoplasmic and nuclear fractions, respectively. Results are shown as the mean±SEM of three independent experiments. **p<0.01 and ***p<0.001 compared to the control group; #p<0.05 and ##p<0.01 compared to the TGF-β1-treated group.
(§1) Cells (106) were incubated for 10 min at 4° C. in lysis buffer (20 mM HEPES at pH 7.4, 2 mM EGTA, 50 mM β-glycerophosphate, 0.1% Triton X-100, 10% glycerol, 1 mM DTT, 1 μg/mL of leupeptin, 5 μg/mL of aprotinin, 1 mM phenylmethylsulfonyl fluoride, and 1 mM sodium orthovanadate), scraped off, incubated on ice for an additional 10 min, and centrifuged at 17,000 g for 30 min at 4° C. Protein samples (20 μg) were then electrophoresed on SDS-polyacrylamide gel electrophoresis (PAGE) gels and transferred to a nitrocellulose membrane, which was then blocked by incubation for 30 min at room temperature with 5% bovine serum albumin (BSA) in Tris-buffered saline with 0.1% Tween-20 (TBST). Immunoblotting was performed by overnight incubation at 4° C. with primary antibodies in TBST, followed by incubation for 1 h at room temperature with horseradish peroxidase (HRP)-conjugated secondary antibodies. Bound antibodies were measured using enhanced chemiluminescence (ECL) reagent (GE Healthcare, UK) and exposed to photographic film.
A Nuclear/Cytosol Fractionation Kit (Biovision, USA) was used to separate the cytosolic and nuclear fractions. […]

A549 cells [2] = assay: TGF-β1-induced EMT protein expression, western blot; assay type: cell-based, human; details: test compounds 2 μM, senexin A 5 μM, pirfenidone 1 mM; TGF-β1 10 ng/mL
Method: FIGS. 4A-4B show the inhibition of epithelial-to-mesenchymal transition protein expressions by CDK8 inhibitors in human alveolar epithelial cells. […] Cell lysates were subjected to a Western blot analysis using the indicated antibodies. Results are shown as the mean t SEM from three independent experiments. *p<0.05, and ***p<0.001 compared to the control group; #p<0.05, ##p<0.01, and ###p<0.001 compared to the TGF-β1-treated group. […] Cell viabilities were determined by an MTT assay. Results are shown as the mean t SEM of three independent experiments.
as §1

In the case of `N#Cc1ccc2ncnc(NCCc3ccccc3)c2c1` [Senexin A, reference compound], the “levels of active form of β-catenin and Snail” value (DU145 cells) is listed as “reduced the levels”, the IC50 (CDK8) is listed as 280 nM and the “phosphorylation of p-Smad3 T179 and RNA Pol II pSer2/5” value (A549 cells [1]) is listed as “less-potent inhibition”. The “TGF-β1-triggered EMT protein expressions” value (A549 cells [2]) was “slight inhibition”.
